Reference: patent US8906928B2, “Substituted pyrazolo-pyrrolo-pyridine-dione compounds” (ArQule, Inc., priority 2009, dated 2014)

Key:
DLD-1 = experiment: MTS assay (cell growth inhibition), DLD-1; assay type: cell-based; conditions: DLD-1 cells, 72 hours incubation with test compound; concentration not given
Outline: (§1)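 First, seed 3000 cells per well in low-serum (1% FBS) DMEM and culture 18 h. Next, add compounds prepared at 300× in DMSO and diluted 1:40 in DMEM; incubate 72 h. Finally, add MTS/PMS for 4 h and measure absorbance at 492 nm.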

Kato III = experiment: MTS assay (cell growth inhibition), Kato III; assay type: cell-based; conditions: Kato III cells, 72 hours incubation with test compound; concentration not given
Outline: as §1

MDA-MB = experiment: MTS assay (cell growth inhibition), MDA-MB; assay type: cell-based; conditions: MDA-MB cells, 72 hours incubation with test compound; concentration not given
Outline: as §1

NCI-H1299 = experiment: MTS assay (cell growth inhibition), NCI-H1299; assay type: cell-based; conditions: NCI-H1299 cells, 72 hours incubation with test compound; concentration not given
Outline: as §1

PACA-2 = experiment: MTS assay (cell growth inhibition), PACA-2; assay type: cell-based; conditions: PACA-2 cells, 72 hours incubation with test compound; concentration not given
Outline: as §1

PC-3 = experiment: MTS assay (cell growth inhibition), PC-3; assay type: cell-based; conditions: PC-3 cells, 72 hours incubation with test compound; concentration not given
Outline: as §1

Row | SMILES | melting point [°C] | MTS CELL KILL DATA (% INHIBITION) DLD-1 (DLD-1) | MTS CELL KILL DATA (% INHIBITION) Kato III (Kato III) | MTS CELL KILL DATA (% INHIBITION) MDA-MB (MDA-MB) | MTS CELL KILL DATA (% INHIBITION) NCI-H1299 (NCI-H1299) | MTS CELL KILL DATA (% INHIBITION) PACA-2 (PACA-2) | MTS CELL KILL DATA (% INHIBITION) PC-3 (PC-3)
1 | O=C1NC(=O)c2c1cnc1[nH]ncc21 [Example 1, pyrazolo[3,4-b]pyrrolo[3,4-d]pyridine-6,8(3H,7H)-dione] | 285 to 300 | – | – | – | – | – | –
2 | CC(C)(C)OC(=O)N1CCC(CN2C(=O)c3cnc4[nH]ncc4c3C2=O)CC1 [Example 140, tert-butyl 4-[(6,8-dioxo-6,8-dihydropyrazolo[3,4-b]pyrrolo[3,4-d]pyridin-7(3H)-yl)methyl]piperidine-1-carboxylate] | 134 to 137 | C (C = <50% INHIBITION) | C (C = <50% INHIBITION) | A (A = 80-100% INHIBITION) | C (C = <50% INHIBITION) | A (A = 80-100% INHIBITION) | A (A = 80-100% INHIBITION)
3 | Cc1ccc(-c2ccccc2CN2C(=O)c3cnc4[nH]ncc4c3C2=O)cc1F [Example 146, 7-[(3′-fluoro-4′-methylbiphenyl-2-yl)methyl]pyrazolo[3,4-b]pyrrolo[3,4-d]pyridine-6,8(3H,7H)-dione] | 193 to 198 | C (C = <50% INHIBITION) | C (C = <50% INHIBITION) | C (C = <50% INHIBITION) | C (C = <50% INHIBITION) | C (C = <50% INHIBITION) | C (C = <50% INHIBITION)
4 | N#Cc1cccc(CN2C(=O)c3cnc4[nH]nc(Br)c4c3C2=O)c1 [Example 142, 3-[(1-bromo-6,8-dioxo-6,8-dihydropyrazolo[3,4-b]pyrrolo[3,4-d]pyridin-7(3H)-yl)methyl]benzonitrile] | 283 to 285 | C (C = <50% INHIBITION) | C (C = <50% INHIBITION) | B (B = 50-79% INHIBITION) | C (C = <50% INHIBITION) | C (C = <50% INHIBITION) | A (A = 80-100% INHIBITION)
5 | N#Cc1ccccc1CN1C(=O)c2cnc3[nH]ncc3c2C1=O [Example 108, 2-[(6,8-dioxo-6,8-dihydropyrazolo[3,4-b]pyrrolo[3,4-d]pyridin-7(3H)-yl)methyl]benzonitrile] | 285 to 287 | – | – | – | – | – | –
6 | O=C1c2cnc3[nH]ncc3c2C(=O)N1CCC1CCNCC1 [Example 70, 7-(2-piperidin-4-ylethyl)pyrazolo[3,4-b]pyrrolo[3,4-d]pyridine-6,8(3H,7H)-dione] | > 300 | – | – | – | – | – | –
7 | O=C1c2cnc3[nH]ncc3c2C(=O)N1CC1CCNCC1 [Example 57, 7-(piperidin-4-ylmethyl)pyrazolo[3,4-b]pyrrolo[3,4-d]pyridine-6,8(3H,7H)-dione] | > 300 | – | – | – | – | – | –
8 | O=C1c2cnc3[nH]ncc3c2C(=O)N1Cc1ccccc1-c1ccc(F)cc1F [Example 145, 7-[(2′,4′-difluorobiphenyl-2-yl)methyl]pyrazolo[3,4-b]pyrrolo[3,4-d]pyridine-6,8(3H,7H)-dione] | 199 to 200 | – | – | – | – | – | –
9 | CC(c1ccccc1-c1ccccc1)N1C(=O)c2cnc3[nH]ncc3c2C1=O (centres unmarked) [Example 144, 7-(1-biphenyl-2-ylethyl)pyrazolo[3,4-b]pyrrolo[3,4-d]pyridine-6,8(3H,7H)-dione] | 161 to 163 | – | – | – | – | – | –
10 | N#Cc1ccc(CN2C(=O)c3cnc4[nH]ncc4c3C2=O)cc1 [Example 41, 4-[(6,8-dioxo-6,8-dihydropyrazolo[3,4-b]pyrrolo[3,4-d]pyridin-7(3H)-yl)methyl]benzonitrile] | 293 to 295 | – | – | – | – | – | –
11 | O=C1c2cnc3[nH]ncc3c2C(=O)N1CCc1ccccc1 [Example 2, 7-(2-phenylethyl)pyrazolo[3,4-b]pyrrolo[3,4-d]pyridine-6,8(3H,7H)-dione] | 237 to 239 | A (A = 80-100% INHIBITION) | A (A = 80-100% INHIBITION) | A (A = 80-100% INHIBITION) | A (A = 80-100% INHIBITION) | A (A = 80-100% INHIBITION) | A (A = 80-100% INHIBITION)
12 | O=C1c2cnc3[nH]ncc3c2C(=O)N1Cc1ccccc1-c1cccc(F)c1F [Example 141, 7-[(2′,3′-difluorobiphenyl-2-yl)methyl]pyrazolo[3,4-b]pyrrolo[3,4-d]pyridine-6,8(3H,7H)-dione] | 93 to 100 | – | – | – | – | – | –
13 | O=C1c2cnc3[nH]ncc3c2C(=O)N1CC1CCC1 [Example 76, 7-(cyclobutylmethyl)pyrazolo[3,4-b]pyrrolo[3,4-d]pyridine-6,8(3H,7H)-dione] | – | C (C = <50% INHIBITION) | C (C = <50% INHIBITION) | C (C = <50% INHIBITION) | C (C = <50% INHIBITION) | C (C = <50% INHIBITION) | C (C = <50% INHIBITION)
14 | COc1cccc(-c2ccccc2CN2C(=O)c3cnc4[nH]ncc4c3C2=O)c1 [Example 147, 7-[(3′-methoxybiphenyl-2-yl)methyl]pyrazolo[3,4-b]pyrrolo[3,4-d]pyridine-6,8(3H,7H)-dione] | 99 to 100 | – | – | – | – | – | –
15 | CC(=O)Nc1cccc(-c2n[nH]c3ncc4c(c23)C(=O)N(CCc2ccccc2)C4=O)c1 [Example 167, N-{3-[6,8-dioxo-7-(2-phenylethyl)-3,6,7,8-tetrahydropyrazolo[3,4-b]pyrrolo[3,4-d]pyridin-1-yl]phenyl}acetamide] | – | A (A = 80-100% INHIBITION) | A (A = 80-100% INHIBITION) | A (A = 80-100% INHIBITION) | A (A = 80-100% INHIBITION) | A (A = 80-100% INHIBITION) | A (A = 80-100% INHIBITION)
16 | O=C1c2cnc3[nH]nc(-c4ccccc4)c3c2C(=O)N1Cc1c(F)cccc1Cl [Example 169, 7-(2-chloro-6-fluorobenzyl)-1-phenylpyrazolo[3,4-b]pyrrolo[3,4-d]pyridine-6,8(3H,7H)-dione] | 224 to 228 | – | – | – | – | – | –
17 | O=C1c2cnc3[nH]ncc3c2C(=O)N1CC1CCOC1 (centres unmarked) [Example 85, 7-(tetrahydrofuran-3-ylmethyl)pyrazolo[3,4-b]pyrrolo[3,4-d]pyridine-6,8(3H,7H)-dione] | – | C (C = <50% INHIBITION) | C (C = <50% INHIBITION) | C (C = <50% INHIBITION) | C (C = <50% INHIBITION) | C (C = <50% INHIBITION) | C (C = <50% INHIBITION)
18 | O=C1c2cnc3[nH]ncc3c2C(=O)N1Cc1ccc(Cl)c(C(F)(F)F)c1 [Example 136, 7-[4-chloro-3-(trifluoromethyl)benzyl]pyrazolo[3,4-b]pyrrolo[3,4-d]pyridine-6,8(3H,7H)-dione] | – | C (C = <50% INHIBITION) | C (C = <50% INHIBITION) | C (C = <50% INHIBITION) | C (C = <50% INHIBITION) | C (C = <50% INHIBITION) | C (C = <50% INHIBITION)
19 | Cc1cccc(OCCN2C(=O)c3cnc4[nH]ncc4c3C2=O)c1 [Example 13, 7-[2-(3-methylphenoxy)ethyl]pyrazolo[3,4-b]pyrrolo[3,4-d]pyridine-6,8(3H,7H)-dione] | – | C (C = <50% INHIBITION) | A (A = 80-100% INHIBITION) | A (A = 80-100% INHIBITION) | B (B = 50-79% INHIBITION) | C (C = <50% INHIBITION) | A (A = 80-100% INHIBITION)
